Results reported in patent US3987157A, “Technetium 99-M labeled radio-diagnostic agents employing stannous tartrate and method of preparation” (Union Carbide Corporation, priority 1974, dated 1976).

Columns and labels:
[1] = Stability of stannous compounds to air oxidation, 2.5 hours (Table XI); type: physicochemical; settings: 40 ml saline and 1 ml 1N HCl
Protocol: Four salts of stannous compounds were each dissolved in a solution of 40 ml of saline and 1 ml of 1N HCl which was purged with nitrogen. The stannous concentration was measured and then the solution was subjected to oxidation conditions by bubbling air through the solution for 2.5 hours. The stannous concentration was again measured.

[2] = Stability of various stannous compounds to air oxidation, one hour (Table XII); type: physicochemical; settings: for Stannous Concentration Before Aeration: 98 ml saline containing 2 ml 1N HCl; for Stannous Concentration After Aeration / % Not Oxidized tin: air bubbled for one hour; for % Not Oxidized tin: 60 min
Protocol: Six salts of stannous compounds were each dissolved in 98 ml of saline containing 2 ml 1N HCl. The solutions were analyzed in order to measure the stannous ion concentration and then were subjected to oxidation conditions by bubbling air through the solutions for one hour. The solutions were analyzed again. […]

[Cl][Sn][Cl] [Stannous Chloride, stannous chloride, reference compound]
Stannous Concentration Before Aeration [1]: 9.3 mg/mL | Stannous Concentration Before Aeration [2]: 0.138 mg/mL | Stannous Concentration After Aeration [2]: 0.085 mg/mL | % Not Oxidized tin [2]: 61.6%

O=C([O-])[C@H](O)[C@@H](O)C(=O)[O-].[Sn+2] [Stannous Tartrate, stannous tartrate]
Stannous Concentration Before Aeration [1]: 18.0 mg/mL | Stannous Concentration Before Aeration [2]: 0.247 mg/mL | Stannous Concentration After Aeration [2]: 0.213 mg/mL | % Not Oxidized tin [2]: 86.2% | Stability to air oxidation (in words) ([2]; one hour air): more stable than stannous chloride with tartrate or citrate ion present
